Assay results: EPA's ToxRefDB 2

Experiments:
rat [1] = details: Developmental neurotoxicity study; sprague dawley; Injection; Subcutaneous; dose end: 345 PND; group: cannot be grouped; systemic / in life observation / body weight / offspring (pup) weight + systemic / in life observation / clinical signs / abnormal movements…
rat [2] = details: Prenatal developmental toxicity study; sprague dawley; Oral; Gavage/Intubation; dose end: 7 GD; group: maternal; reproductive / reproductive performance / estrous cycle / corpora lutea + reproductive / reproductive performance / postimplantation loss / …
rat [3] = details: Sub-acute repeat dose toxicity, sprague dawley, Oral, Gavage/Intubation, dose end: 28 day, group: systemic
rat [4] = details: Sub-acute repeat dose toxicity, sprague dawley, Oral, Gavage/Intubation, dose end: 28 day, group: systemic; remark: listed apart in the source
rat [5] = details: Sub-acute repeat dose toxicity, sprague dawley, Oral, Gavage/Intubation, dose end: 14 day, group: systemic
primate [6] = details: Sub-acute repeat dose toxicity; Oral; Gavage/Intubation; dose end: 21 day; group: systemic; systemic / in life observation / clinical signs / inappetence + systemic / in life observation / clinical signs / abnormal feces + systemic…
primate [7] = details: Sub-acute repeat dose toxicity; Oral; Gavage/Intubation; dose end: 19 day; group: systemic; systemic / clinical chemistry / creatinine / creatinine + systemic / clinical chemistry / urea nitrogen / urea nitrogen + systemic / …
primate [8] = details: Sub-acute repeat dose toxicity; Oral; Gavage/Intubation; dose end: 30 day; group: systemic; systemic / clinical chemistry / protein / protein + systemic / hematology / erythrocyte (rbc) count differential / erythrocyte (rbc) + …
rat [9] = details: Carcinogenicity; fischer; Oral; Feed; dose end: 2 year; group: systemic; systemic / in life observation / body weight / body weight
rat [10] = details: Sub-acute repeat dose toxicity; sprague dawley; Injection; Intravenous; dose end: 5 day; group: systemic; systemic / in life observation / clinical signs / drooping eyelids (ptosis) + systemic / in life observation / clinical signs / reduced …
rat [11] = details: Sub-acute repeat dose toxicity; sprague dawley; Injection; Intravenous; dose end: 4 day; group: systemic; systemic / in life observation / clinical signs / drooping eyelids (ptosis) + systemic / in life observation / clinical signs / external …
dog = details: Sub-acute repeat dose toxicity, beagle, Injection, Intravenous, dose end: 5 day, group: systemic
primate [12] = details: Sub-acute repeat dose toxicity; Injection; Intravenous; dose end: 5 day; group: systemic; systemic / in life observation / clinical signs / [other] + systemic / in life observation / clinical signs / compulsive biting or licking…
[13] = systemic / organ weight / heart / nos + systemic / organ weight / thymus / nos + systemic / pathology microscopic / ovary / follicle count
[14] = systemic / pathology gross / full gross necropsy / ulcer
[15] = systemic / pathology gross / full gross necropsy / ulcer + systemic / clinical chemistry / protein / protein + systemic / hematology / …
[16] = systemic / clinical chemistry / calcium / calcium + systemic / clinical chemistry / protein / protein + systemic / hematology / erythrocyte…
[17] = systemic / hematology / erythrocyte (rbc) count differential / erythrocyte (rbc) + systemic / hematology / hematocrit (hct) / hematocrit (…
[18] = systemic / clinical chemistry / bile acids / bile acids
[19] = systemic / clinical chemistry / bile acids / bile acids + systemic / pathology microscopic / gallbladder / hyperplasia + systemic / …

**Q.** C[C@@H]1C[C@H]2[C@@H]3CCC4=CC(=O)C=C[C@]4(C)[C@@]3(F)[C@@H](O)C[C@]2(C)[C@@]1(O)C(=O)CO [Dexamethasone] was tested. Which LEL (rat [1]) did it give?
**A.** Its LEL is 3 mg/kg/day.

**Q.** And the LOAEL (rat [1])?
**A.** The LOAEL was > 3 mg/kg/day.

**Q.** And the NEL (rat [1])?
**A.** The NEL was < 3 mg/kg/day.

**Q.** What about the NOAEL (rat [1]) of the same compound?
**A.** Its NOAEL is ≥ 3 mg/kg/day.

**Q.** Which results are given for CS(=O)(=O)OCCCCOS(C)(=O)=O [Busulfan]?
**A.** LEL (rat [2]): 1.5 mg/kg/day; LOAEL (rat [2]): > 1.5 mg/kg/day; NEL (rat [2]): 0.5 mg/kg/day; NOAEL (rat [2]): ≥ 1.5 mg/kg/day; LOAEL (rat [3]; [13]): > 1.5 mg/kg/day; NEL (rat [3]; [13]): 0.1 mg/kg/day; NOAEL (rat [3]; [13]): ≥ 1.5 mg/kg/day; LEL (rat [3]; systemic / pathology microscopic / ovary / follicle count): 0.5 mg/kg/day

**Q.** How did the LEL (rat [4]; [14]) turn out when NC(=O)n1c(O)c(C(=O)c2cc(Cl)cs2)c2cc(Cl)ccc21 was run?
**A.** The LEL was 2 mg/kg/day.

**Q.** And the NEL (rat [4]; [14])?
**A.** The NEL was < 2 mg/kg/day.

**Q.** And the LOAEL (rat [4]; [15])?
**A.** Its LOAEL is > 8 mg/kg/day.

**Q.** What about the NOAEL (rat [4]; [15]) of the same compound?
**A.** Its NOAEL is ≥ 8 mg/kg/day.

**Q.** And the LOAEL (rat [5]; [16])?
**A.** Its LOAEL is > 100 mg/kg/day.

**Q.** What about the NOAEL (rat [5]; [16]) of the same compound?
**A.** The NOAEL was ≥ 100 mg/kg/day.

**Q.** And the LEL (rat [5]; [17])?
**A.** Its LEL is 3 mg/kg/day.

**Q.** And the NEL (rat [5]; [17])?
**A.** The NEL was < 3 mg/kg/day.

**Q.** What about the LEL (primate [6]) of the same compound?
**A.** The LEL was 3 mg/kg/day.

**Q.** What about the LOAEL (primate [6]) of the same compound?
**A.** The LOAEL was > 3 mg/kg/day.

**Q.** What about the NEL (primate [6]) of the same compound?
**A.** Its NEL is < 3 mg/kg/day.

**Q.** What about the NOAEL (primate [6]) of the same compound?
**A.** The NOAEL was ≥ 3 mg/kg/day.

**Q.** What about the LEL (primate [7]) of the same compound?
**A.** The LEL was 8 mg/kg/day.

**Q.** And the LOAEL (primate [7])?
**A.** Its LOAEL is > 8 mg/kg/day.

**Q.** What about the NEL (primate [7]) of the same compound?
**A.** Its NEL is < 8 mg/kg/day.

**Q.** What about the NOAEL (primate [7]) of the same compound?
**A.** The NOAEL was ≥ 8 mg/kg/day.

**Q.** What about the LEL (primate [8]) of the same compound?
**A.** Its LEL is 2 mg/kg/day.

**Q.** And the LOAEL (primate [8])?
**A.** Its LOAEL is > 6 mg/kg/day.

**Q.** And the NEL (primate [8])?
**A.** The NEL was < 2 mg/kg/day.

**Q.** And the NOAEL (primate [8])?
**A.** Its NOAEL is ≥ 6 mg/kg/day.

**Q.** With Cc1ccc2ncccc2c1 [6-Methylquinoline] as the compound, how does the LEL (rat [9]) read?
**A.** The LEL was 25 mg/kg/day.

**Q.** What about the LOAEL (rat [9]) of the same compound?
**A.** Its LOAEL is > 25 mg/kg/day.

**Q.** And the NEL (rat [9])?
**A.** Its NEL is < 25 mg/kg/day.

**Q.** What about the NOAEL (rat [9]) of the same compound?
**A.** Its NOAEL is ≥ 25 mg/kg/day.

**Q.** Which LEL (rat [10]) does the source give for CNC(=O)[C@H]1O[C@@H](n2cnc3c(NCc4cc(Cl)ccc4OCc4cc(C)no4)ncnc32)[C@H](O)[C@@H]1N here?
**A.** Its LEL is 5 mg/kg/day.

**Q.** What about the LOAEL (rat [10]) of the same compound?
**A.** The LOAEL was > 150 mg/kg/day.

**Q.** And the NEL (rat [10])?
**A.** The NEL was < 5 mg/kg/day.

**Q.** What about the NOAEL (rat [10]) of the same compound?
**A.** Its NOAEL is ≥ 150 mg/kg/day.

**Q.** What about the LEL (rat [11]) of the same compound?
**A.** Its LEL is 5 mg/kg/day.

**Q.** And the LOAEL (rat [11])?
**A.** Its LOAEL is > 5 mg/kg/day.

**Q.** What about the NEL (rat [11]) of the same compound?
**A.** Its NEL is < 5 mg/kg/day.

**Q.** What about the NOAEL (rat [11]) of the same compound?
**A.** Its NOAEL is ≥ 5 mg/kg/day.

**Q.** And the LEL (dog; [18])?
**A.** Its LEL is 3 mg/kg/day.

**Q.** And the NEL (dog; [18])?
**A.** The NEL was < 3 mg/kg/day.

**Q.** And the LOAEL (dog; [19])?
**A.** The LOAEL was > 30 mg/kg/day.

**Q.** And the NOAEL (dog; [19])?
**A.** Its NOAEL is ≥ 30 mg/kg/day.

**Q.** And the LEL (primate [12])?
**A.** The LEL was 40 mg/kg/day.

**Q.** And the LOAEL (primate [12])?
**A.** The LOAEL was > 40 mg/kg/day.

**Q.** And the NEL (primate [12])?
**A.** Its NEL is 15 mg/kg/day.

**Q.** What about the NOAEL (primate [12]) of the same compound?
**A.** Its NOAEL is ≥ 40 mg/kg/day.
